Data as given in article PMC9079729, “Conservation of the conformational dynamics and ligand binding within M49 enzyme family” (RSC Advances, 2018).
Residues, ends and D or L forms follow the SMILES beside them.

Target: T1, yDPP III (Saccharomyces cerevisiae, UniProt Q08225)
T1 construct: His6 (C); made in house; host or cells: E. coli
T1 sequence (Q08225 1-711): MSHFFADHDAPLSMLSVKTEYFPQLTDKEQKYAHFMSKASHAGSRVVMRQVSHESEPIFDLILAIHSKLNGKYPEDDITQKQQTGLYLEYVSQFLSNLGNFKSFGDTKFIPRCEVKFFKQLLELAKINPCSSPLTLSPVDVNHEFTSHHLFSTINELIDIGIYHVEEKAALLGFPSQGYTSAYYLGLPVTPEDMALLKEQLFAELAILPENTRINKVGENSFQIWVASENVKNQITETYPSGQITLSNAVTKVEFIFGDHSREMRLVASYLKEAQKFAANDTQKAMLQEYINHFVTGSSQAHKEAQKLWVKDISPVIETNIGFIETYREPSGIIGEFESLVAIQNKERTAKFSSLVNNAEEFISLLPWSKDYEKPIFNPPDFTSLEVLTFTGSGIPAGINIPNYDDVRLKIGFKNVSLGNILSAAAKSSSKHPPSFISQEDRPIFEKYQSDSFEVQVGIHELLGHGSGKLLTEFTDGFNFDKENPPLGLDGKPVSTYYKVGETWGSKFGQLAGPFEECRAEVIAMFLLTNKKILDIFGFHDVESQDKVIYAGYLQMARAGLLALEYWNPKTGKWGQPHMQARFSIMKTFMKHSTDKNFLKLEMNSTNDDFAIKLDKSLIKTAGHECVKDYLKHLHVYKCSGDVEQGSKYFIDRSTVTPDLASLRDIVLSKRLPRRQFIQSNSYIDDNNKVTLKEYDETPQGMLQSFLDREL
Assay: Differential HDX-MS, unliganded vs. tynorphin complex
Type: binding, yeast (Saccharomyces cerevisiae)
Details: yDPP III peptide p42 (407-422)
Description: In the first step of the HDX analysis, optimization of digestion conditions and establishing a list of peptic peptides for all DPP III orthologues was carried out. With non-deuterated sample, a 5 μL aliquot of protein stock (between 35–50 μM in 20 mM Tris, pH 7.4) was diluted 10 times by adding 45 μL of 20 mM Tris, pH 7.4 (H2O reaction buffer). Next, the sample was acidified by mixing with 10 μL of 2 M glycine buffer, pH 2.5 (H2O stop buffer). The sample was subjected to online pepsin digestion using a 2.1 mm × 30 mm immobilized pepsin resin column (Porozyme, ABI, Foster City, CA) with 200 μL min^−1 flow of 0.07% formic acid in water as a mobile phase. Digested peptides were passed directly to the 2.1 mm × 5 mm C18 trapping column (Acquity BEH C18 VanGuard precolumn, 1.7 μm resin, Waters, Milford, MA). […]
Separate hydrogen deuterium exchange experiments were carried out for six unliganded DPP III enzymes, human V412I mutant, and their tynorphin complexes. […] The reaction buffer was prepared using D2O (99.8% Armar Chemicals, Switzerland), in which the pH (uncorrected meter reading) was adjusted using DCl or NaOD (Sigma). […] Relative deuterium uptake values are calculated without correction for back exchange. […]

## CC(C)[C@H](N)C(=O)N[C@H](C(=O)N[C@@H](Cc1ccc(O)cc1)C(=O)N1CCC[C@H]1C(=O)N[C@@H](Cc1c[nH]c2ccccc12)C(=O)O)C(C)C [tynorphin] (H-VVYPW-OH)
  deuterium incorporation decrease, fast exchanging conformation: less than 1%
  deuterium incorporation decrease, slow exchanging conformation: more than 22%
